US7517874B2 (priority 2007, dated 2009)
Read-outs that look alike come from different tables or passages of the source.

How the values were obtained:
[1] = target: human CB1 receptor (hCB1) (Homo sapiens, UniProt P21554); test: cell-based; format: cell-based; details: for +/− HCB1: agonist or inverse agonist at hCB1
Summary of the method: (§1)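 First, cells in IBMX-containing HEPES-buffered HBSS are raised to elevated cAMP with 2-8 μM NKH-477 for 30 min. Data are normalised to the forskolin and forskolin + 1 μM CP55,940 controls.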

[2] = target: T1, rat CB2 receptor (rCB2) (Rattus norvegicus, UniProt Q9QZN9); test: cell-based; format: cell-based; details: for +/− RCB2: agonist or inverse agonist at rCB2
T1 sequence (Q9QZN9 1-360): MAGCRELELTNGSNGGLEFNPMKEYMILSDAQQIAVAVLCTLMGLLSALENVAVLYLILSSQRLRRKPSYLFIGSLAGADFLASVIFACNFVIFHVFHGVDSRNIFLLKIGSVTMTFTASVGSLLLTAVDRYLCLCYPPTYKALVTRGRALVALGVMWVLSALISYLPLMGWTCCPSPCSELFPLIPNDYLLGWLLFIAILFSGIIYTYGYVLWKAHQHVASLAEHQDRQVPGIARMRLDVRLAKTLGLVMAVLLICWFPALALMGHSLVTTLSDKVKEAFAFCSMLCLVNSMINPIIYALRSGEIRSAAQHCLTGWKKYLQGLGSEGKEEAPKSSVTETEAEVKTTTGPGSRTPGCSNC
Summary of the method: as §1

[3] = groups >100 nM-10 μM and >10 μM, cAMP, CHO-K1 hCB1, read-out: EC50 HCB1

human CB1 receptor (hCB1), sequence (P21554 whole entry): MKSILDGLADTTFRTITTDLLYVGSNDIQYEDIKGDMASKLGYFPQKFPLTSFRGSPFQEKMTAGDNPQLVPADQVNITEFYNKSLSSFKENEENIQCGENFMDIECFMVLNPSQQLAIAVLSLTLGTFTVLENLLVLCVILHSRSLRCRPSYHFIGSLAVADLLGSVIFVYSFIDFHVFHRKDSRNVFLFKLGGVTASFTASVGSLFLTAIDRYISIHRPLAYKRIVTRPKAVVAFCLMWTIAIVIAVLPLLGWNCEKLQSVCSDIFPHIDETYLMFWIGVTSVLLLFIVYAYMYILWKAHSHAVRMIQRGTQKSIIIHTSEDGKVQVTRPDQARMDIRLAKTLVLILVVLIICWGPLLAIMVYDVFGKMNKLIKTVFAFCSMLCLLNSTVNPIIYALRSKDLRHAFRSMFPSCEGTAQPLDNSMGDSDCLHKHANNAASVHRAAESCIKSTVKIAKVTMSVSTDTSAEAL

Q: What does the source list for `CNC(=O)[C@@H](NC(=O)c1nc(-c2ccccc2-c2ccccc2)n2c1CN(C)CCC2)C(C)(C)C` [Compound 413, (S)-3-(biphenyl-2-yl)-N-(3,3-dimethyl-1-(methylamino)-1-oxobutan-2-yl)-8-methyl-6,7,8,9-tetrahydro-5H-imidazo[1,5-a][1,4]diazepine-1-carboxamide]?
A: EC50 [1]: > 10000 nM; EC50 [2]: > 10000 nM

Q: With `CNC(=O)[C@H](CC(C)C)NC(=O)c1nc(C2CCCCC2)n2c1CN(C)CCC2` [Compound 540, (S)-3-cyclohexyl-8-methyl-N-(4-methyl1-1-(methylamino)-1-oxopentan-2-yl)-6,7,8,9-tetrahydro-5H-imidazo[1,5-a][1,4]diazepine-1-carboxamide] as the molecule, how does the EC50 [1, 3] read?
A: The EC50 was over 10000 nM.

Q: What about the “+/− RCB2” value [2] of the same molecule?
A: The value was “+”.

Q: `COC(=O)[C@@H](NC(=O)c1nc(-c2ccccc2)n2c1CN(C)CCC2)C(C)(C)C` [Compound 467, (S)-methyl 3,3-dimethyl-2-(8-methyl-3-phenyl-6,7,8,9-tetrahydro-5H-imidazo[1,5-a][1,4]diazepine-1-carboxamido)butanoate] was tested. Which EC50 [1] did it give?
A: Its EC50 is over 10000 nM.

Q: What about the “+/− RCB2” value [2] of the same molecule?
A: Its value is “+”.

Q: What does the source list for `CNC(=O)[C@@H](NC(=O)c1nc(-c2ccc(F)c(C(=O)O)c2)n2c1CN(C)CCC2)C(C)(C)C` [Compound 411]?
A: EC50 [1]: > 10000 nM; EC50 [2]: > 10000 nM

Q: For `CNC(=O)[C@@H](NC(=O)c1nc(-c2ccc(Br)cc2F)n2c1CN(C)CCC2)C(C)(C)C` [Compound 600, (S)-3-(4-bromo-2-fluorophenyl)-N-(3,3-dimethyl-1-(methylamino)-1-oxobutan-2-yl)-8-methyl-6,7,8,9-tetrahydro-5H-imidazo[1,5-a][1,4]diazepine-1-carboxamide], which “+/− HCB1” value [1] is on record?
A: Its value is “+”.

Q: What about the EC50 [2] of the same molecule?
A: Its EC50 is over 10000 nM.

Q: Which EC50 [1] does the source give for `CNC(=O)[C@@H](NC(=O)c1nc(-c2ccc3ccccc3c2)n2c1CN(C)CCC2)C(C)(C)C` [Compound 380, (S)-N-(3,3-dimethyl-1-(methylamino)-1-oxobutan-2-yl)-8-methyl-3-(naphthalen-2-yl)-6,7,8,9-tetrahydro-5H-imidazo[1,5-a][1,4]diazepine-1-carboxamide] here?
A: The EC50 was over 10000 nM.

Q: And the “+/− RCB2” value [2]?
A: Its value is “−”.

Q: What does the source list for `CNC(=O)[C@@H](NC(=O)c1nc(-c2ccccc2)n2c1CN(c1ncccn1)CCC2)C(C)(C)C` [Compound 483, (S)-N-(3,3-dimethyl-1-(methylamino)-1-oxobutan-2-yl)-3-phenyl-8-(pyrimidin-2-yl)-6,7,8,9-tetrahydro-5H-imidazo[1,5-a][1,4]diazepine-1-carboxamide]?
A: +/− HCB1 [1]: +; +/− RCB2 [2]: −

Q: `CCS(=O)(=O)N1CCn2c(-c3ccccc3)nc(C(=O)NC3CCCCC3)c2C1` [Compound 118, N-cyclohexyl-7-(ethylsulfonyl)-3-phenyl-5,6,7,8-tetrahydroimidazo[1,5-a]pyrazine-1-carboxamide] was tested. Which EC50 [1] did it give?
A: Its EC50 is over 10000 nM.

Q: And the “+/− RCB2” value [2]?
A: The value was “−”.

Q: For `CNC(=O)[C@H](CC(C)C)NC(=O)c1nc(C2=CCCCO2)n2c1CN(C)CC2` [Compound 280, (S)-3-(3,4-dihydro-2H-pyran-6-yl)-7-methyl-N-(4-methyl-1-(methylamino)-1-oxopentan-2-yl)-5,6,7,8-tetrahydroimidazo[1,5-a]pyrazine-1-carboxamide], which EC50 [1] is on record?
A: The EC50 was over 10000 nM.

Q: What about the “+/− RCB2” value [2] of the same molecule?
A: The value was “+”.

Q: Which EC50 [1] does the source give for `Cc1noc([C@@H](NC(=O)c2nc(-c3ccccc3)n3c2CNCCC3)C(C)(C)C)n1` [Compound 519, (S)-N-(2,2-dimethyl-1-(3-methyl-1,2,4-oxadiazol-5-yl)propyl)-3-phenyl-6,7,8,9-tetrahydro-5H-imidazo[1,5-a][1,4]diazepine-1-carboxamide] here?
A: The EC50 was over 10000 nM.

Q: And the “+/− RCB2” value [2]?
A: Its value is “+”.

Q: How did the EC50 [1, 3] turn out when `CCS(=O)(=O)N1CCn2c(-c3ccccc3)nc(C(=O)NN3CCCCC3)c2C1` [Compound 115, 7-(ethylsulfonyl)-3-phenyl-N-(piperidin-1-yl)-5,6,7,8-tetrahydroimidazo[1,5-a]pyrazine-1-carboxamide] was run?
A: Its EC50 is over 10000 nM.

Q: And the “+/− RCB2” value [2]?
A: The value was “−”.

Q: For `CC(=O)N1CCn2c(-c3ccccc3)nc(C(=O)Nc3ccccc3)c2C1` [Compound 173, 7-acetyl-N,3-diphenyl-5,6,7,8-tetrahydroimidazo[1,5-a]pyrazine-1-carboxamide], which EC50 [1, 3] is on record?
A: The EC50 was over 10000 nM.

Q: And the EC50 ([2]; groups >100 nM-10 μM and >10 μM, cAMP, CHO-K1 rCB2, read-out: EC50 RCB2)?
A: Its EC50 is over 10000 nM.

Q: With `CNC(=O)[C@H](CC(C)C)NC(=O)c1nc(-c2ccc(Cl)c(F)c2)n2c1CN(C)CC2` [Compound 277, (S)-3-(4-chloro-3-fluorophenyl)-7-methyl-N-(4-methyl-1-(methylamino)-1-oxopentan-2-yl)-5,6,7,8-tetrahydroimidazo[1,5-a]pyrazine-1-carboxamide] as the molecule, how does the EC50 [1] read?
A: Its EC50 is over 10000 nM.

Q: And the “+/− RCB2” value [2]?
A: Its value is “−”.

Q: Which results are given for `CNC(=O)[C@@H](NC(=O)c1nc(-c2cc(Cl)ccc2F)n2c1CN(C)CCC2)C(C)(C)C` [Compound 361, (S)-3-(5-chloro-2-fluorophenyl)-N-(3,3-dimethyl-1-(methylamino)-1-oxobutan-2-yl)-8-methyl-6,7,8,9-tetrahydro-5H-imidazo[1,5-a][1,4]diazepine-1-carboxamide]?
A: +/− HCB1 [1]: +; +/− RCB2 [2]: +

Q: What does the source list for `CNC(=O)[C@@H](NC(=O)c1nc(-c2cc(Cl)c(F)cc2F)n2c1CN(C)CCC2)C1CCCCC1` [Compound 542, (S)-3-(5-chloro-2,4-difluorophenyl)-N-(1-cyclohexyl-2-(methylamino)-2-oxoethyl)-8-mehtyl-6,7,8,9-tetrahydro-5H-imidazo[1,5-a][1,4]diazepine-1-carboxamide]?
A: +/− HCB1 [1]: +; +/− RCB2 [2]: +

Q: How did the EC50 [1, 3] turn out when `C[C@@H](NC(=O)c1nc(-c2ccccc2)n2c1CNCC2)C1CCCCC1` [Compound 45, (R)-N-(1-cyclohexylethyl)-3-phenyl-5,6,7,8-tetrahydroimidazo[1,5-a]pyrazine-1-carboxamide] was run?
A: The EC50 was over 10000 nM.

Q: And the “+/− RCB2” value [2]?
A: Its value is “−”.

Q: For `CNC(=O)[C@H](CC(C)(C)C)NC(=O)c1nc(-c2cccc(F)c2)n2c1CN(C)CCC2` [Compound 548, (S)-N-(4,4-dimethyl-1-(methylamino)-1-oxopentan-2-yl)-3-(3-fluorophenyl)-8-methyl-6,7,8,9-tetrahydro-5H-imidazo[1,5-a][1,4]diazepine-1-carboxamide], which “+/− HCB1” value [1] is on record?
A: The value was “+”.

Q: And the “+/− RCB2” value [2]?
A: Its value is “+”.

Q: `CNC(=O)[C@@H](NC(=O)c1nc(-c2ccccc2)n2c1CN(Cc1cccnc1)CC2)C(C)(C)C` [Compound 63, (S)-N-(3,3-dimethyl-1-(methylamino)-1-oxobutan-2-yl)-3-phenyl-7-(pyridin-3-ylmethyl)-5,6,7,8-tetrahydroimidazo[1,5-a]pyrazine-1-carboxamide] was tested. Which EC50 [1] did it give?
A: The EC50 was over 10000 nM.

Q: And the EC50 [2]?
A: The EC50 was over 10000 nM.

Q: Which EC50 [1] does the source give for `CNC(=O)[C@H](C)NC(=O)c1nc(-c2ccccc2)n2c1CN(Cc1cncnc1)CC2` [Compound 77, (S)-N-(1-(methylamino)-1-oxopropan-2-yl)-3-phenyl-7-(pyrimidin-5-ylmethyl)-5,6,7,8-tetrahydroimidazo[1,5-a]pyrazine-1-carboxamide] here?
A: The EC50 was over 10000 nM.

Q: What about the EC50 [2] of the same molecule?
A: The EC50 was over 10000 nM.

Q: What does the source list for `Cc1nnc([C@@H](NC(=O)c2nc(-c3ccccc3)n3c2CN(CC(C)C)CC3)C(C)(C)C)o1` [Compound 202, (S)-N-(2,2-dimethyl-1-(5-methyl-1,3,4-oxadiazol-2-yl)propyl)-7-isobutyl-3-phenyl-5,6,7,8-tetrahydroimidazo[1,5-a]pyrazine-1-carboxamide]?
A: EC50 [1]: > 10000 nM; +/− RCB2 [2]: −

Q: What does the source list for `CCS(=O)(=O)N1CCCn2c(-c3ccccc3)nc(C(=O)N[C@H](C(=O)NC)C(C)(C)C)c2C1` [Compound 461, (S)-N-(3,3-dimethyl-1-(methylamino)-1-oxobutan-2-yl)-8-(ethylsulfonyl)-3-phenyl-6,7,8,9-tetrahydro-5H-imidazo[1,5-a][1,4]diazepine-1-carboxamide]?
A: EC50 [1]: > 10000 nM; +/− RCB2 [2]: −

Q: For `Cc1noc([C@@H](NC(=O)c2nc(-c3ccccc3)n3c2CN(C2CC2)CC3)C(C)(C)C)n1` [Compound 198, (S)-7-cyclopropyl-N-(2,2-dimethyl-1-(3-methyl-1,2,4-oxadiazol-5-yl)propyl)-3-phenyl--5,6,7,8-tetrahydroimidazo[1,5-a]pyrazine-1-carboxamide], which EC50 [1] is on record?
A: Its EC50 is over 10000 nM.

Q: And the “+/− RCB2” value [2]?
A: Its value is “−”.

Q: What does the source list for `CNC(=O)[C@@H](NC(=O)c1nc(-c2cc(F)cc(OC)c2)n2c1CN(C)CCC2)C(C)(C)C` [Compound 384, (S)-N-(3,3-dimethyl-1-(methylamino)-1-oxobutan-2-yl)-3-(3-fluoro-5-methoxyphenyl)-8-methyl-6,7,8,9-tetrahydro-5H-imidazo[1,5-a][1,4]diazepine-1-carboxamide]?
A: EC50 [1]: > 10000 nM; +/− RCB2 [2]: −

Q: Which EC50 [1, 3] does the source give for `CN1CCn2c(-c3ccc(Cl)cc3F)nc(C(=O)NCc3ccc4[nH]c(=O)[nH]c4c3)c2C1` [Compound 228, 3-(4-chloro-2-fluorophenyl)-7-methyl-N-((2-oxo-2,3-dihydro-1H-benzo[d]imidazol-5-yl)methyl)-5,6,7,8-tetrahydroimidazo[1,5-a]pyrazine-1-carboxamide] here?
A: The EC50 was over 10000 nM.

Q: And the “+/− RCB2” value [2]?
A: Its value is “−”.

Q: Which EC50 [1] does the source give for `CC(C)CN1CCn2c(-c3ccccc3)nc(C(=O)N[C@H](C)C3CCCCC3)c2C1` [Compound 163, (R)-N-(1-cyclohexylethyl)-7-isobutyl-3-phenyl-5,6,7,8-tetrahydroimidazo[1,5-a]pyrazine-1-carboxamide] here?
A: The EC50 was over 10000 nM.

Q: What about the “+/− RCB2” value [2] of the same molecule?
A: Its value is “−”.

Q: `CCCc1nc(C(=O)N[C@H](C(=O)NC)C(C)(C)C)c2n1CCN(C)C2` [Compound 304, (S)-N-(3,3-dimethyl-1-(methylamino)-1-oxobutan-2-yl)-7-methyl-3-propyl-5,6,7,8-tetrahydroimidazo[1,5-a]pyrazine-1-carboxamide] was tested. Which EC50 [1] did it give?
A: Its EC50 is over 10000 nM.

Q: And the “+/− RCB2” value [2]?
A: The value was “+”.
